The record followed here is patent US11226337B2, “Chemoproteomic profiling of protein electrophilic and oxidative post-translational modifications” (Zenagem, LLC, priority 2017, dated 2022).

Test in all cases: SILAC RP-ABPP
Type in all cases: cell-based

The target of test [1] is T1, ALDH2 Aldehyde dehydrogenase (P05091) (Homo sapiens, UniProt P05091).
T1 construct: shared by both the endogenous and recombinant forms of these proteins; endogenous in cells; host or cells: HEK293T and MDA-MB-231
T1 sequence (P05091 18-517): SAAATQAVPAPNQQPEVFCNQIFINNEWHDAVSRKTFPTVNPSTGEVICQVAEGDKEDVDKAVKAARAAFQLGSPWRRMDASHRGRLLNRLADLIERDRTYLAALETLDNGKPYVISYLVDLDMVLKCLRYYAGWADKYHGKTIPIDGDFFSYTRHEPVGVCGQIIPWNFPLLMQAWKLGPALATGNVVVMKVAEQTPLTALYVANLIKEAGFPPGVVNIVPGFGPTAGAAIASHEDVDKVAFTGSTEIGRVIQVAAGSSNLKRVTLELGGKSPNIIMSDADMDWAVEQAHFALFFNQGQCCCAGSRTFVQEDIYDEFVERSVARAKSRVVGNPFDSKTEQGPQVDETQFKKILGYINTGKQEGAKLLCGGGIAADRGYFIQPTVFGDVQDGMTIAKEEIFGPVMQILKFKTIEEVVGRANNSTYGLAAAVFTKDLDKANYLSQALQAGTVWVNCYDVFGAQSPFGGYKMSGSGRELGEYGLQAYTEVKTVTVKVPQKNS
The following applies: SILAC H/L, HEK293T. Summed up:
(§1)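 SILAC cells (HEK293T, MDA-MB-231) grown near confluence; heavy: probe 1, 3 mM, 0.5 h; light: equal 3 or probe + 10× 3. Proteomes mixed equimolar, CuAAC with 100 μM biotin-azide, 1 h RT; enrichment, LC-MS. Ratios via CIMAGE-type extraction, ≥3 peptides.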

Test [2] has as its target T2, ALDOC Fructosebisphosphate aldolase C (P09972) (Homo sapiens, UniProt P09972).
T2 construct: shared by both the endogenous and recombinant forms of these proteins; endogenous in cells; host or cells: HEK293T and MDA-MB-231
T2 sequence (P09972 1-364): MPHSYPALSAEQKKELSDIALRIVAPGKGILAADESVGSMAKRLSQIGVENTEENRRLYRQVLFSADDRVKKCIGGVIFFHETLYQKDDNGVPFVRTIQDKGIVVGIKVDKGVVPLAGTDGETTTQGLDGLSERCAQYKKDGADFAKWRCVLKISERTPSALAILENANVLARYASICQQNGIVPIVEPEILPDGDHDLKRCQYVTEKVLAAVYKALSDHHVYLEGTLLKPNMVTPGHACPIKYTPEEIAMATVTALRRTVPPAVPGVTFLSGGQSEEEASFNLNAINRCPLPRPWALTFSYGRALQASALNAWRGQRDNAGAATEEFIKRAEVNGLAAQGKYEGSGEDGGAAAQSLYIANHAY
Particulars: SILAC H/L, HEK293T. Summed up:
as §1

Test [3] deals with T3, CTSD Cathepsin D (P07339) (Homo sapiens, UniProt P07339).
T3 construct: In Situ Labelling of Cells with Hydrazine Probes for MS Experiments; endogenous in cells; host or cells: HEK293T and MDA-MB-231
The following applies: SILAC H/L.

The target of test [4] is T4, TPP1 Tripeptidylpeptidase 1 (O14773) (Homo sapiens, UniProt O14773).
T4 construct: In Situ Labelling of Cells with Hydrazine Probes for MS Experiments; endogenous in cells; host or cells: HEK293T and MDA-MB-231
T4 sequence (O14773 196-563): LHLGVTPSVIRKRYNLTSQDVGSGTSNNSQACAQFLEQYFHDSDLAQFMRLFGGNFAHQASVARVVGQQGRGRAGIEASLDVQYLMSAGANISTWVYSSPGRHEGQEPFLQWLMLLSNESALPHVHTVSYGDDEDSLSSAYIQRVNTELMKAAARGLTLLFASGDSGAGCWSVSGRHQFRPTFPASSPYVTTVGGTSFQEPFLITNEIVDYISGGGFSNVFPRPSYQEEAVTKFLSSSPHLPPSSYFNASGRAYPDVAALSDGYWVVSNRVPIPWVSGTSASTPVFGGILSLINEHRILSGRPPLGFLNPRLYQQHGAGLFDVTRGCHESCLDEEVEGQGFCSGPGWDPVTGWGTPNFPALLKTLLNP
The following applies: SILAC H/L, MDA-MB-231.

T3 sequence (P07339 65-412): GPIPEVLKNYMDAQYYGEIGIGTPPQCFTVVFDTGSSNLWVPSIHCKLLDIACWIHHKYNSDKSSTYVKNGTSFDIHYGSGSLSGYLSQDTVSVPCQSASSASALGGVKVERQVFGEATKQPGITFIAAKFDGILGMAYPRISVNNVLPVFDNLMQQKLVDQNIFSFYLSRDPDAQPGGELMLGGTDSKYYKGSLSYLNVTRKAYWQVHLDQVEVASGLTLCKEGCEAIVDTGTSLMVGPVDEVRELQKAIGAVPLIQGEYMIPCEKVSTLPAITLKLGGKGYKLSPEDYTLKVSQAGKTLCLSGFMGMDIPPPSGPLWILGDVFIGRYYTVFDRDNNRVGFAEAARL

With `C#CCNN.Cl` [probe 1, prop-2-yn-1-ylhydrazine hydrochloride], the enrichment ratioavg in test [1] (probe 1 3 mM 0.5 h vs probe 3) stood at 8; in test [2] (probe 1 3 mM 0.5 h vs probe 3) it was 16; in test [3] (probe 1 3 mM 0.5 h vs probe 3, HEK293T), 13; in test [4] (probe 1 3 mM 0.5 h vs probe 3), 15. Further, the competition ratioavg is 2 in test [1] (probe 1 vs probe 1+10x probe 3); 3 in test [2] (probe 1 vs probe 1+10x probe 3); 1 in test [3] (probe 1 vs probe 1+10x probe 3, HEK293T); 3 in test [4] (probe 1 vs probe 1+10x probe 3).

In the case of `C#CCCNC(=O)c1ccc(NN)cc1.Cl` [probe 2, N-(but-3-yn-1-yl)-4-hydrazinylbenzamide hydrochloride], the enrichment ratioavg in test [1] (probe 2 1 mM 0.5 h vs probe 4) was 11; in test [2] (probe 2 1 mM 0.5 h vs probe 4) it was 14; in test [3] (probe 2 1 mM 0.5 h vs probe 4, MDA-MB-231), 16; in test [4] (probe 2 1 mM 0.5 h vs probe 4) it was 18. In addition, the competition ratioavg in test [1] (probe 2 vs probe 2+10x probe 4) was found to be 6; in test [2] (probe 2 vs probe 2+10x probe 4), 5; in test [3] (probe 2 vs probe 2+10x probe 4, MDA-MB-231), 4; in test [4] (probe 2 vs probe 2+10x probe 4), 4.
